The source of these data is patent US20230140972A1, “GLYCEROL GLUCOSIDE-BASED COMPOUND AND COMPOSITION COMPRISING SAME FOR ULTRAVIOLET LIGHT SHIELD OR ANTI-INFLAMMATION” (ATHENA CO., LTD., priority 2020, published 2023).

Broadly, the inhibition is the change of the read-out against control, counted positive when it falls. By cell viability is commonly meant a read-out of living cells in per cent, often relative to untreated cells.

The subject of series [1] is TNF-α production in RAW264.7 cells. Kind of series: TNF-α production inhibition using ELISA assay. The format is cell-based. The settings on record: Mus musculus, LPS 10 ng/mL. As for the experimental part:
A TNF-α production inhibition ability of the sample in RAW264.7 cells was evaluated using a TNF-α ELISA assay.
Specifically, subcultured RAW264.7 cells were aliquoted into a 6-well dish at 1.5×10^6 cells/well, and cultured for 24 hours at 37° C. in an incubator containing 5% carbon dioxide, and then a culture media was replaced with a serum-free media. Then, each sample was diluted by concentration and treated onto the cells with LPS (final 10 ng/mL). After culturing for 24 hours, the cell culture medium was recovered and the TNF-α ELISA assay was performed.
50 μL of an assay diluent was put into each well, and 50 μL of each of a standard solution and a cell culture solution were added to each well and reacted at room temperature for 2 hours. Thereafter, the reaction solution was removed from each well, washed with a wash buffer, 100 μL of TNF-α conjugate was added, and after reacting at room temperature for 2 hours, the reaction solution was removed from each well and washing is performed with a wash buffer.
Thereafter, 100 μL of a substrate solution was added and a reaction under light blocking was carried out at room temperature, and then 100 μL of a stop solution was added, and an absorbance was measured at 450 and 570 nm. Dexamethasone was used as a positive control group. After the test was conducted once, a TNF-α synthesis amount was calculated by substituting the absorbance value into a TNF-α standard solution calibration curve, and then the TNF-α production inhibition rate (%) was calculated using Equation 3 below, and expressed as the mean±standard deviation of the experiment.
In general terms: In an ELISA, binding on a coated surface is turned into a signal by an enzyme label.

Series [2] has as its system IL-6 production in RAW264.7 cells. Kind of series: IL-6 production inhibition using ELISA assay. The settings on record: LPS 10 ng/mL. The format is cell-based, mouse. As for the experimental part: An IL-6 ELISA assay was used to evaluate an IL-6 production inhibition ability of the sample in RAW264.7 cells.
Specifically, subcultured RAW264.7 cells were aliquoted into a 6-well dish at 1.5×10^6 cells/well and cultured for 24 hours at 37° C. in an incubator containing 5% carbon dioxide, and then a culture media was replaced with a serum-free media. Then, each sample was diluted by concentration and treated onto the cells with LPS (final 10 ng/mL). After culturing for 24 hours, the cell culture medium was recovered and an IL-6 ELISA assay was performed.
50 μL of an assay diluent was put into each well, and 50 μL of each of a standard solution and a cell culture solution were added to each well and reacted at room temperature for 2 hours. Thereafter, the reaction solution was removed from each well, washed with a wash buffer, 100 μL of IL-6 conjugate was added, and after reaction at room temperature for 2 hours, the reaction solution was removed from each well and washing is performed with a wash buffer.
Next, 100 μL of a substrate solution was added and a reaction under light blocking was carried out at room temperature, and then 100 μL of a stop solution was added, and an absorbance was measured at 450 and 570 nm. Dexamethasone was used as a positive control group. After the test was conducted once, an IL-6 production amount was calculated by substituting the absorbance value into a IL-6 standard solution calibration curve, and then the IL-6 production inhibition rate (%) was calculated using Equation 4 below, and expressed as the mean±standard deviation of the experiment.

The next series deals with RAW264.7 cells. As to the kind of experiment: Cell viability measurement using MTT assay. The conditions noted are these: vs untreated group. The format is cell-based, mouse. How it is done: In order to evaluate a cell viability of the glycerol glucoside-based compound sample (EPS-S), an MTT assay was performed.
Specifically, subcultured RAW264.7 cells and HDF cells were aliquoted into a 96-well plate at 1×10^5, respectively, and cultured for 24 hours at 37° C. in an incubator containing 5% carbon dioxide, and then, a culture media was replaced with a serum-free media. Then, each sample was treated onto each cell by concentration. After culturing for 24 hours, an MTT solution was put into each well, reacted for 2 hours under light blocking, a supernatant was removed, a formed formazan was completely dissolved in DMSO, and an absorbance was measured at 540 nm with a microplate reader. In such a case, SDS was used as a positive control group. The test result value was calculated as in Equation 1 below and expressed as the cell viability compared to an untreated group, and was expressed as a mean±standard deviation.
For orientation: Tetrazolium dyes change colour on reduction, which living cells bring about.

The subject of another series is p-IKK. Kind of series: Western blot of p-IKK protein expression. It counts as cell-based, mouse. The settings on record: RAW264.7 cells, LPS, 15 minutes, 100 ppm; untreated = 100, negative control 1001.95. How it is done:
(§1) A western blot was performed as follows to observe p-IKK, p-IκB and p-NF-κB protein expression abilities of the glycerol glucoside-based compound sample (EPS-S).
(§2) Specifically, the subcultured mouse-derived macrophage line, RAW264.7 cells, were aliquoted in a 60 mm dish at 1.5×10^6 cells, and cultured for 24 hours at 37° C. in an incubator containing 5% carbon dioxide, and then a culture media was replaced with a serum-free media. Then, the glycerol glucoside-based compound sample (EPS-S) was diluted by concentration and treated onto the cells with LPS (final 1 μg/mL). After culturing for 15 minutes, protein was lysed (lysis) to recover cytoplasmic and nuclear extracts, and proteins were separated by size through SDS-PAGE. After transferring the protein to a membrane through a transfer, a primary antibody was attached thereto and reacted at 4° C. overnight. After the primary reaction, a secondary antibody was attached thereto, and reacted at room temperature for 1 hour, an ECL solution was sprayed on the entire surface, and a band image was obtained through a bioimage analyzer. After obtaining a band intensity of each band through Image J, normalization was performed using β-acitn and substituted in Equation 7 below to obtain the expression rate of p-IKK, p-IκB and p-NF-κB proteins in the treated sample group compared to the untreated group.
In general terms: Immunoblotting shows a protein as a band on a membrane.

For another series, the system named is p-NF-κB. As to the kind of experiment: Western blot of p-NF-κB protein expression. The format is cell-based, mouse. The conditions noted are these: RAW264.7 cells, LPS, 15 minutes, 100 ppm; untreated = 100, negative control 222.25. How it is done:
as §1, §2

In the next series the test system is p-IκB. As to the kind of experiment: Western blot of p-IκB protein expression. The format is cell-based, mouse. The settings on record: RAW264.7 cells, LPS, 15 minutes, 100 ppm; untreated = 100, negative control 390.06. As for the experimental part: as §1, §2

Several values for one entry are separate records, joined by “and”; a condition that tells them apart may be missing. Equal values may be shown once.

On to `C[C@@H]1C[C@H]2[C@@H]3CCC4=CC(=O)C=C[C@]4(C)[C@@]3(F)[C@@H](O)C[C@]2(C)[C@@]1(O)C(=O)CO` [Dexamethasone], for which the inhibition at 1 µM in series [1] (24 h, 1 μM, read-out: TNF-α production inhibition ability) was 13.8%; in series [2] (Mus musculus, RAW264.7, 24 h, 1 μM, read-out: IL-6 production inhibition ability) it was 12.7%. Besides, the inhibition at 5 µM in series [1] (24 h, 5 μM, read-out: TNF-α production inhibition ability) amounted to 34.7%; in series [2] (Mus musculus, RAW264.7, 24 h, 5 μM, read-out: IL-6 production inhibition ability), 48.4%. Also, the inhibition at 10 µM in series [1] (24 h, 10 μM, read-out: TNF-α production inhibition ability) was determined as 46.5%. Also, the inhibition at 20 µM was found to be 52.1% in series [1] (24 h, 20 μM, read-out: TNF-α production inhibition ability) and 63.3% in series [2] (Mus musculus, RAW264.7, 24 h, 20 μM, read-out: IL-6 production inhibition ability). The inhibition at 50 µM in series [1] (24 h, 50 μM (text b137), read-out: TNF-α production inhibition rate) was determined as 65%; in series [2] (Mus musculus, RAW264.7, 24 h, 50 μM (text b146), read-out: IL-6 production inhibition rate), 88.7%. Besides, in series [1] (24 h, 80 μM, read-out: TNF-α production inhibition ability), the inhibition at 80 µM was determined as 65.05 ± 0.6%. The “IL-6 production inhibition ability” value in series [2] (24 h, 10 Mm (10 μM)) is reported as 55.97%.

Consider `COCC(COC)OC1OC(CO)C(O)C(O)C1O` (centres unmarked) [EPS-S], for which the cell viability with RAW264.7 cells (24 h, 1 ppm) is 103.36% and 103.36 ± 0.88%; in the series with RAW264.7 cells (24 h, 10 ppm), 104.47% and 104.47 ± 3.61%; in the series with RAW264.7 cells (24 h, 100 ppm) it was 108.58% and 108.58 ± 1.99%; in the series with RAW264.7 cells (24 h, 1,000 ppm), 113.79% and 113.79 ± 0.13%. In the series on p-IKK, the “p-IKK protein expression rate” value is listed as 514.98%. In addition, the inhibition at 10 ppm in series [1] (24 h, 10 ppm, read-out: TNF-α production inhibition ability) was 29.7%; in series [2] (Mus musculus, RAW264.7, 24 h, 10 ppm, read-out: IL-6 production inhibition ability), 10.1%. The inhibition at 100 ppm in series [1] (24 h, 100 ppm, read-out: TNF-α production inhibition ability) was 34.9%; in series [2] (Mus musculus, RAW264.7, 24 h, 100 ppm, read-out: IL-6 production inhibition ability), 23.8%. Moreover, the inhibition at 500 ppm in series [1] (24 h, 500 ppm, read-out: TNF-α production inhibition ability) was 49.7%; in series [2] (Mus musculus, RAW264.7, 24 h, 500 ppm, read-out: IL-6 production inhibition ability), 36.3%. Moreover, the inhibition at 1000 ppm in series [1] (24 h, 1,000 ppm, read-out: TNF-α production inhibition ability) was determined as 77.6%; in series [2] (Mus musculus, RAW264.7, 24 h, 1,000 ppm, read-out: IL-6 production inhibition ability) it was 92.4%. Moreover, the “p-NF-κB protein expression rate” value with p-NF-κB is 185.30%. For the same compound, in the series with p-IκB, the “p-IκB protein expression rate” value was found to be 203.52%.
